Experimental data from patent US20100311741A1, “Bicyclosulfonyl Acid (BCSA) Compounds and Their Use as Therapeutic Agents” (INHIBOX LTD., priority 2007, published 2010).

target: T1, Human recombinant TACE enzyme (Homo sapiens, UniProt P78536); experiment: TACE assay (fluorescent peptide substrate); type: biochemical; conditions: 3.5 h; single concentration @2 (μM); read-out: Av. TACE Inhibition, % @2
T1 construct: purchased R and D Systems, Abingdon, UK 930-ADB
Protocol: The activity of the compounds as TACE inhibitors was determined using a commercially available peptide substrate (M-2255, Bachem UK Ltd, St. Helens, UK) and recombinant TACE enzyme (930-ADB, R and D Systems, Abingdon, UK). Human recombinant TACE enzyme (5 ng/30 μL) was incubated for 3.5 hour at 37° C. in assay buffer (25 mM Tris.HCl, 2.5 μM ZnCl2, 0.005% Brij 35, pH 8.0) with 5 μM substrate in the presence of test compound (TACE inhibitor). The extent of TACE activity was determined by measurement of the fluorescence (excitation 355 nm, emission 460 nm).
(§1) Percent activity (% activity) for each test compound was calculated as:
(§2) % activity={(S^C−B)/(S^o−B)}×100
(§3) wherein S^C denotes signal measured in the presence of enzyme and the compound being tested, S^o denotes signal measured in the presence of enzyme but in the absence of the compound being tested, and B denotes the background signal measured in the absence of both enzyme and compound being tested. The IC50 corresponds to the concentration which achieves 50% activity.

T1 sequence (P78536 215-671 limits assumed): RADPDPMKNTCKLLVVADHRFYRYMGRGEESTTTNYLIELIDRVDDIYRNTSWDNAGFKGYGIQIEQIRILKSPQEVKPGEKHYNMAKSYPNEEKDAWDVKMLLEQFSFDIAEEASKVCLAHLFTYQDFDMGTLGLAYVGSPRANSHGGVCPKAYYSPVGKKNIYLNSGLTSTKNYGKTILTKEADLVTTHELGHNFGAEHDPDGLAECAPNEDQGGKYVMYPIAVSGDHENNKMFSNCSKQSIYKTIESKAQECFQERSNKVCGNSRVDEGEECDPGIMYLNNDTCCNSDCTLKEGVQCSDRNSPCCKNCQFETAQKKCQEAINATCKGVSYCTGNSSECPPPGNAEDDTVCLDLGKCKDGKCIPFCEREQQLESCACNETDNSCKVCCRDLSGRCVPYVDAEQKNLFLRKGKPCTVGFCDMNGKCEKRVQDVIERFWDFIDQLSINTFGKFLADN

inhibition at 2 µM [%]	SMILES
29	COc1ccc2c(c1Cl)C(CC(=O)NO)N(c1ccccc1)S2(=O)=O (centres unmarked) [IX-093]
13	COc1cccc2c1S(=O)(=O)N(c1ccccc1)C2CC(=O)NO (centres unmarked) [IX-091]
32	Cc1ccc2c(c1)S(=O)(=O)N(c1ccccc1)C2CC(=O)NO (centres unmarked) [IX-073]
34	O=C(CC1c2cccc(Cl)c2S(=O)(=O)N1c1ccccc1)NO (centres unmarked) [IX-088]
35	COc1cccc2c1C(CC(=O)NO)N(c1ccccc1)S2(=O)=O (centres unmarked) [IX-082]
23	COc1cc(Cl)cc2c1S(=O)(=O)N(c1ccccc1)C2CC(=O)NO (centres unmarked) [IX-092]
20	O=C(CC1c2c(ccc(F)c2Cl)S(=O)(=O)N1c1ccccc1)NO (centres unmarked) [IX-086]
15	COc1cc(OC)c2c(c1)C(CC(=O)NO)N(c1ccccc1)S2(=O)=O (centres unmarked) [IX-072]
4	O=C(CC1c2ccc(-c3ccccc3)cc2S(=O)(=O)N1c1ccccc1)NO (centres unmarked) [IX-079]
0	O=C(CC1c2cccc(C(F)(F)F)c2S(=O)(=O)N1c1ccccc1)NO (centres unmarked) [IX-084]
0	O=C(CC1c2c(Cl)cc(Cl)cc2S(=O)(=O)N1c1ccccc1)NO (centres unmarked) [IX-089]
0	O=C(CC1c2ccccc2S(=O)(=O)N1C1CCN(Cc2ccccc2)CC1)NO (centres unmarked) [IX-044]
57	Cc1cc(F)c2c(c1)C(CC(=O)NO)N(c1ccccc1)S2(=O)=O (centres unmarked) [IX-085]
10	O=C(CC1c2ccc(C(F)(F)F)cc2S(=O)(=O)N1c1ccccc1)NO (centres unmarked) [IX-090]
10	O=C(CC1c2ccc(Br)cc2S(=O)(=O)N1c1ccccc1)NO (centres unmarked) [IX-074]
10	COc1cc2c(c(OC)c1OC)S(=O)(=O)N(c1ccccc1)C2CC(=O)NO (centres unmarked) [IX-071]

same assay, conditions: 3.5 h; single concentration @100 (μM); read-out: Av. TACE Inhibition, % @100

inhibition at 100 µM [%]	SMILES
36	O=C(CC1c2ccccc2S(=O)(=O)N1c1ccc(N2CCOCC2)cc1)NO (centres unmarked) [IX-034]
81	O=C(CC1c2ccccc2S(=O)(=O)N1c1cccc(C(F)(F)F)c1)NO (centres unmarked) [IX-014]
28	O=C(CC1NS(=O)(=O)c2ccccc21)NO (centres unmarked) [IX-039]
64	O=C(CC1c2ccccc2S(=O)(=O)N1c1cccc(CO)c1)NO (centres unmarked) [IX-075]
54	O=C(CC1c2ccccc2S(=O)(=O)N1c1ccc(-n2cncn2)cc1)NO (centres unmarked) [IX-030]
55	O=C(CC1c2ccccc2S(=O)(=O)N1c1ccc(C(F)(F)F)cc1)NO (centres unmarked) [IX-019]
81	CN(C)CCOc1ccc(N2C(CC(=O)NO)c3ccccc3S2(=O)=O)cc1 (centres unmarked) [IX-051]
38	O=C(NO)C1c2ccccc2S(=O)(=O)N1c1ccccc1 (centres unmarked) [IX-095]
27	O=C(NO)C1c2c(Cl)cccc2S(=O)(=O)N1c1ccccc1 (centres unmarked) [IX-096]
54	O=C(CC1c2ccccc2S(=O)(=O)N1c1cccc(OC(F)(F)F)c1)NO (centres unmarked) [IX-015]
86	O=C(CC1c2ccccc2S(=O)(=O)N1c1cccc(Oc2ccccc2)c1)NO (centres unmarked) [IX-011]
93	CSc1cccc(N2C(CC(=O)NO)c3ccccc3S2(=O)=O)c1 (centres unmarked) [IX-013]
26	O=C(CCC1c2ccccc2S(=O)(=O)N1c1ccccc1)NO (centres unmarked) [IX-094]
70	O=C(CC1c2ccccc2S(=O)(=O)N1c1ccc(-c2cnco2)cc1)NO (centres unmarked) [IX-031]
50	CC#CCOc1ccc(N2C(CC(=O)O)c3ccccc3S2(=O)=O)cc1 (centres unmarked) [IX-100]
97	O=C(CC1c2ccccc2S(=O)(=O)N1c1cccc(-c2ccccc2)c1)NO (centres unmarked) [IX-017]
52	COc1cccc(N2C(CC(=O)NO)c3ccccc3S2(=O)=O)c1 (centres unmarked) [IX-009]
50	COc1ccccc1N1C(CC(=O)NO)c2ccccc2S1(=O)=O (centres unmarked) [IX-008]
9	O=C(O)CC1c2ccccc2S(=O)(=O)N1c1ccccc1 (centres unmarked) [IX-099]
50	CC(C)c1ccc(N2C(CC(=O)NO)c3ccccc3S2(=O)=O)cc1 (centres unmarked) [IX-024]
53	O=C(CC1c2ccccc2S(=O)(=O)N1c1ccc(OCCN2CCOCC2)cc1)NO (centres unmarked) [IX-052]
28	CN1C(CC(=O)NO)c2ccccc2S1(=O)=O (centres unmarked) [IX-040]

test system: HDAC (HeLa cell extract); experiment: Selectivity assay: HDAC activity, fluorescent assay (Fluor de Lys); type: biochemical; conditions: 15 μM acetylated substrate, 1 hour at 37° C., read-out: Av. HDAC Inhibition EC50
Protocol: Alternatively, the activity of the compounds as HDAC inhibitors was determined using a commercially available fluorescent assay kit (Fluor de Lys™, BioMol Research Labs, Inc., Plymouth Meeting, USA). HeLa extract was incubated for 1 hour at 37° C. in assay buffer (25 mM HEPES, 137 mM NaCl, 2.7 mM KCl, 1 mM MgCl2, pH 8.0) with 15 μM acetylated substrate in the presence of test compound (HDAC inhibitor). The extent of deacetylation was determined by the addition of 50 μL of a 1-in-500 dilution of Developer, and subsequent measurement of the fluorescence (excitation 355 nm, emission 460 nm), according to the instructions provided with the kit.
The HeLa cell extract was made from HeLa cells (ATCC Ref. No. CCL-2) by freeze-thawing three times in 60 mM Tris.HCl, pH 8.0, 450 mM NaCl, 30% glycerol. Two cell volumes of extraction buffer were used, and particulate material was centrifuged out (20,800 g, 4° C., 10 minutes). The supernatant extract having deacetylase activity was aliquoted and frozen for storage.
as §1, §2, §3

EC50 [µM]	SMILES
23.7	CCOc1ccc2c(c1)C(CC(=O)NO)N(c1ccccc1)S2(=O)=O (centres unmarked) [IX-078]

same assay, conditions: single concentration @100 (μM)

SMILES	Av. HDAC Inhibition, % @100 [%@100]
O=C(CC1c2ccccc2S(=O)(=O)N1c1cccc(CO)c1)NO (centres unmarked) [IX-075]	2
O=C(C[C@@H]1c2ccccc2S(=O)(=O)[C@H]1c1ccccc1)NO [IX-097]	20
O=C(CC1c2ccccc2S(=O)(=O)N1c1ccc(OC(F)(F)F)cc1)NO (centres unmarked) [IX-020]	−2
O=C(CC1c2ccccc2S(=O)(=O)N1c1ccc2ccccc2c1)NO (centres unmarked) [IX-004]	32
COc1ccc(N2C(CC(=O)NO)c3ccccc3S2(=O)=O)cc1 (centres unmarked) [IX-010]	17
CCCCOc1ccc(N2C(CC(=O)NO)c3ccccc3S2(=O)=O)cc1 (centres unmarked) [IX-036]	−4
O=C(C[C@@H]1c2ccccc2S(=O)(=O)N1c1ccccc1)NO [IX-003]	44
COc1ccc2c(c1)C(CC(=O)NO)N(c1ccccc1)S2(=O)=O (centres unmarked) [IX-068]	44
O=C(C[C@H]1c2ccccc2S(=O)(=O)N1c1ccccc1)NO [IX-002]	43
COc1cccc(N2C(CC(=O)NO)c3ccccc3S2(=O)=O)c1 (centres unmarked) [IX-009]	24
O=C(CC1c2ccccc2S(=O)(=O)N1c1ccc(Cl)cc1)NO (centres unmarked) [IX-012]	11

test system: not given; experiment: not given; conditions: not given

melting point	SMILES
160 to 161 °C	CC#CCOc1ccc(N2C(CC(=O)O)c3ccccc3S2(=O)=O)cc1 (centres unmarked) [IX-100]
167 to 170 °C	O=C(NO)C1c2c(Cl)cccc2S(=O)(=O)N1c1ccccc1 (centres unmarked) [Compound 62.2, 4-Chloro-1,1-dioxo-2-phenyl-2,3-dihydro-1H-benzo[d]isothiazole-3-carboxylic acid hydroxyamide]
178 to 179 °C (dec.)	O=C(O)CC1c2ccccc2S(=O)(=O)N1c1ccccc1 (centres unmarked) [IX-099]
148 to 150 °C (dec.)	C#CCCOc1ccc(N2C(CC(=O)NO)c3ccccc3S2(=O)=O)cc1 (centres unmarked) [Compound (5.54), 2-[2-(4-But-3-ynyloxy-phenyl)-1,1-dioxo-2,3-dihydro-1H-benzo[d]isothiazol-3-yl]-N-hydroxyacetamide]
> 210 °C (dec.)	Cc1cc(COc2ccc(N3C(CC(=O)NO)c4ccccc4S3(=O)=O)cc2)cc(C)n1 (centres unmarked) [Compound (5.61), 2-{2-[4-(2,6-Dimethyl-pyridin-4-ylmethoxy)phenyl]-1,1-dioxo-2,3-dihydro-1H-benzo[d]isothiazol-3-yl}-N-hydroxyacetamide]
145 to 147 °C (dec.)	O=C(CC1c2ccccc2S(=O)(=O)N1c1cccc(F)c1)NO (centres unmarked) [Compound (5.36), 2-[2-(3-Fluoro-phenyl)-1,1-dioxo-2,3-dihydro-1H-benzo[d]isothiazol-3-yl]-N-hydroxyacetamide]
207 to 208 °C (dec.)	O=C(CC1c2ccccc2S(=O)(=O)N1c1ccc(-c2ccccc2)cc1)NO (centres unmarked) [Compound (5.23), 2-(2-Biphenyl-4-yl-1,1-dioxo-2,3-dihydro-1H-benzo[d]isothiazol-3-yl)-N-hydroxyacetamide]
> 204 °C (dec.)	Cc1cc(COc2ccc(N3C(CC(=O)NO)c4ccccc4S3(=O)=O)cc2)ccn1 (centres unmarked) [Compound (5.60), 2-{2-[4-(2-Methyl-pyridin-4-ylmethoxy)-phenyl]-1,1-dioxo-2,3-dihydro-1H-benzo[d]isothiazol-3-yl}-N-hydroxyacetamide]
186 to 187 °C	O=C(CC1c2ccccc2S(=O)(=O)N1c1ccc(OCc2ccccc2)cc1)NO (centres unmarked) [Compound (5.25), 2-[2-(4-Benzyloxy-phenyl)-1,1-dioxo-2,3-dihydro-1H-benzo[d]isothiazol-3-yl]-N-hydroxyacetamide]
188 to 191 °C	O=C(NO)C1c2ccccc2S(=O)(=O)N1c1ccccc1 (centres unmarked) [Compound 62.1, 1,1-Dioxo-2-phenyl-2,3-dihydro-1H-benzo[d]isothiazole-3-carboxylic acid hydroxyamide]
187 to 189 °C	O=C(CC1c2cccc(C(F)(F)F)c2S(=O)(=O)N1c1ccccc1)NO (centres unmarked) [Compound 54.3]
177 to 178 °C	CCOc1ccc(N2C(CC(=O)NO)c3ccccc3S2(=O)=O)cc1 (centres unmarked) [Compound (5.33), 2-[2-(4-Ethoxyphenyl)-1,1-dioxo-2,3-dihydro-1H-benzo[d]isothiazol-3-yl]-N-hydroxyacetamide]
